Measured values: PubChem BioAssay AID2060908 (Molecular Pharmacology Branch, DTP, NCI, 2025)
pIC50: −log10 of the molar value.

Test system: 186277-243-T-J2-PDC complex spheroids, viability
Experiment: Anticancer human tumor 186277-243-T-J2-PDC patient-derived colon adenocarcinoma cell line growth inhibition [RAS]
Settings: for pIC50: curve of first compound; for viability, T/C: stronger effect = lower value
Text: RAS pathway inhibitors in Combinations in Complex Spheroids
A high-throughput screen of multi-cell type tumor spheroids was designed to identify active combinations of RAS pathway inhibitors and targeted small molecules. Complex spheroids include a stromal component modeled by human endothelial cells (HUVEC) and fibroblasts modeled by human mesenchymal stem cells (MSCs). The concentration ranges selected for each drug and investigational agent were based upon clinically achievable concentrations if the clinical Cmax of the agent was known.
Compounds. The drugs and investigational agents: abemaciclib (NSC768073), cobimetinib (NSC768068), divarasib (GDC6063, NSC841802), docetaxel (NSC628503), GDC-1971 (RLY-1971, NSC841576), gemcitabine (NSC613327), inavolisib (NSC800729), ipatasertib (NSC767898), KB-0742 (NSC834161), MRTX-1133 (NSC836407), osimertinib (NSC779217), RMC-4630 (NSC839698), RMC-6236 (NSC851965), RMC-6291 (NSC852671), Ro-3306 (NSC812927), sapanisertib (NSC764658), SN-38 (NSC673596), staurosporine (NSC755774), SY5609 (NSC837396), and tovorafenib (DAY101, NSC766906), were obtained from the National Cancer Institute (NCI) Developmental Therapeutics Program Chemical Repository. The FDA-approved anticancer drug set is available from the NCI Developmental Therapeutics Program. […] The stock solutions were prepared in dimethyl sulfoxide (DMSO, Sigma-Aldrich, St. Louis, MO, cat. D2650) at 800-fold the tested concentration and stored at -70 degrees C prior to their use. All drugs and investigational agents were tested over a range starting from a high concentration at or near the clinical Cmax and decreasing in half-log increments. If the clinical Cmax for an agent had not been determined, the highest concentration tested was 10 microM.
Cell Culture. All cells were maintained in an incubator at 37 degrees C and 5% CO2 with 95% humidity. The PDC lines were cultured according to standard operating procedures established by the NCI PDMR. All PDCs were thawed and cultured in Matrigel-coated flasks prepared with a working solution of 1X Ham's F-12 nutrient mix, without supplementation (Invitrogen, Waltham, MA, cat. 11765054), 100 U/mL penicillin-streptomycin (Invitrogen, cat. 15140122), and 2.5% Matrigel (Corning Inc., Corning, NY, cat. 354248) for the first three passages. The 362531-283-R-J2-PDC and 782815-120-R-J1-PDC lines were cultured in 6C/Colon 1B media, which includes advanced DMEM/F-12 (Thermo Fisher Scientific, cat. 12634028), 10 mM HEPES (Thermo Fisher Scientific, cat. 15630080), 1X GlutaMAX supplement (Thermo Fisher Scientific, cat. 35050061), 0.1 mg/mL primocin (InvivoGen, San Diego, CA, cat. ant-pm-2), 10% defined fetal bovine serum, heat inactivated (HyClone Laboratories Inc., Logan, UT, cat. SH30070.03HI), 50% L-WRN conditioned media (ATCC, cat. CRL-3276), 1.25 mM N-Acetyl-L-cysteine (Sigma-Aldrich, cat. A9165), 10 mM nicotinamide (Sigma-Aldrich, cat. N0636), 1X B-27 supplement (Thermo Fisher Scientific, cat. 17504044), 1X N-2 supplement (Thermo Fisher Scientific, cat. 17502048), 50 ng/mL human EGF (Thermo Fisher Scientific, cat. PHG0311), and 10 microM Y-27632 dihydrochloride (Tocris Bioscience, cat. 1254). The K12877-001-R-J1-PDC line was cultured in 6I media, which includes all 6C/Colon 1B media plus 10 ng/mL human FGF-10 (PeproTech, cat. 100-26), 1 ng/mL human FGF-2 (PeproTech, cat. 100-18B), 1 µM prostaglandin E2 (Tocris Bioscience, cat. 2296), […] hydrocortisone (Sigma-Aldrich, cat. H4001), and […] bovine insulin (Sigma-Aldrich, cat. I6634). The K86415-001-R-J1-PDC line was cultured in 6D media, which includes all 6C/Colon 1B media components minus the L-WRN conditioned media. The 485176-168-R4-J1-PDC was cultured in PANC media, which includes all 6C/Colon 1B media plus 100 ng/mL human FGF-10 (PeproTech, cat. 100-26), 500 nM SB-431542 (Selleckchem, cat. S1067), and 10 nM gastrin (Tocris Bioscience, cat. 3006). […]
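Note: spheroids exposed to compounds for 7 days before viability read.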

Compound: CC1(O)CCCC1n1c(=O)c(C(F)F)cc2cnc(NC3CCN(S(C)(=O)=O)CC3)nc21 (configuration not stated) + C#Cc1c(F)ccc2cc(O)cc(-c3ncc4c(N5CC6CCC(C5)N6)nc(OCC56CCCN5CC(F)C6)nc4c3F)c12
- pIC50 (second compound 0.0316 µM): 6.24
- pIC50 (second compound 0.1 µM): 6.98
- pIC50 (second compound 0.316 µM): > 7.50
- pIC50 (second compound 1 µM): > 7.50
- pIC50 (second compound 3.16 µM): > 7.50
- pIC50 (second compound 10 µM): > 7.50
- viability, T/C (second compound 0.0316 µM, first compound 0.0316 µM): 71.2%
- viability, T/C (second compound 0.0316 µM, first compound 0.1 µM): 69.4%
- viability, T/C (second compound 0.0316 µM, first compound 0.316 µM): 47.3%
- viability, T/C (second compound 0.0316 µM, first compound 1 µM): 43.7%
- viability, T/C (second compound 0.0316 µM, first compound 3.16 µM): 33.4%
- viability, T/C (second compound 0.0316 µM, first compound 10 µM): 1.2%
- viability, T/C (second compound 0.1 µM, first compound 0.0316 µM): 65.4%
- viability, T/C (second compound 0.1 µM, first compound 0.1 µM): 50.3%
- viability, T/C (second compound 0.1 µM, first compound 0.316 µM): 31.8%
- viability, T/C (second compound 0.1 µM, first compound 1 µM): 27.8%
- viability, T/C (second compound 0.1 µM, first compound 3.16 µM): 20.9%
- viability, T/C (second compound 0.1 µM, first compound 10 µM): 0.42%
- viability, T/C (second compound 0.316 µM, first compound 0.0316 µM): 23.6%
- viability, T/C (second compound 0.316 µM, first compound 0.1 µM): 23.3%
- viability, T/C (second compound 0.316 µM, first compound 0.316 µM): 17%
- viability, T/C (second compound 0.316 µM, first compound 1 µM): 16.9%
- viability, T/C (second compound 0.316 µM, first compound 3.16 µM): 11.4%
- viability, T/C (second compound 0.316 µM, first compound 10 µM): 0.33%
- viability, T/C (second compound 1 µM, first compound 0.0316 µM): 15.6%
- viability, T/C (second compound 1 µM, first compound 0.1 µM): 13.1%
- viability, T/C (second compound 1 µM, first compound 0.316 µM): 10%
- viability, T/C (second compound 1 µM, first compound 1 µM): 12.4%
- viability, T/C (second compound 1 µM, first compound 3.16 µM): 10.8%
- viability, T/C (second compound 1 µM, first compound 10 µM): 0.24%
- viability, T/C (second compound 3.16 µM, first compound 0.0316 µM): 11.4%
- viability, T/C (second compound 3.16 µM, first compound 0.1 µM): 12.1%
- viability, T/C (second compound 3.16 µM, first compound 0.316 µM): 9.69%
- viability, T/C (second compound 3.16 µM, first compound 1 µM): 8.93%
- viability, T/C (second compound 3.16 µM, first compound 3.16 µM): 9.39%
- viability, T/C (second compound 3.16 µM, first compound 10 µM): 0.27%
- viability, T/C (second compound 10 µM, first compound 0.0316 µM): 9.74%
- viability, T/C (second compound 10 µM, first compound 0.1 µM): 8.08%
- viability, T/C (second compound 10 µM, first compound 0.316 µM): 9.05%
- viability, T/C (second compound 10 µM, first compound 1 µM): 8.95%
- viability, T/C (second compound 10 µM, first compound 3.16 µM): 8.58%
- viability, T/C (second compound 10 µM, first compound 10 µM): 0.36%
